Measurements published in patent US5990094A, “Inhibitors of sorotonin N-acetyltransferase” (The Rockefeller University, priority 1998, dated 1999).

Assays:
AANAT = settings: 2-fluorohistidine replaces histidine; cited from earlier work
GST-AANAT = biological target: T1, GST-AANAT (Ovis aries, UniProt Q29495); assay: Effect of DTNB on GST-AANAT activity; type: biochemical, sheep
T1 construct: The entire open reading frame of the DNA encoding sheep AANAT in the plasmid vector pET15b; made in house; host or cells: Escherichia coli BL21(DE3)pLysS
Description: The potential difficulty with this approach was that reducing agents such as dithiothreitol and β-mercaptoethanol react with DTNB (Ellman's reagent). Indeed, GST-AANAT is somewhat unstable in the absence of reducing agents, losing greater than 50% activity within 2 h at 4° C. (data not shown). However, the enzyme was stable within the short incubation periods used in these studies (less than 3 min). It was shown unequivocally that CoASH generation was coupled tightly to N-acetyltryptamine formation, and the activity was linear with time and enzyme concentration.

[1] = people; cited from earlier work
[2] = test system: intracellular receptors for melatonin; settings: intracellular orphan receptors vs G-protein family; cited from earlier work

T1 sequence (Q29495 other isoform, or with tags, fused parts or gaps): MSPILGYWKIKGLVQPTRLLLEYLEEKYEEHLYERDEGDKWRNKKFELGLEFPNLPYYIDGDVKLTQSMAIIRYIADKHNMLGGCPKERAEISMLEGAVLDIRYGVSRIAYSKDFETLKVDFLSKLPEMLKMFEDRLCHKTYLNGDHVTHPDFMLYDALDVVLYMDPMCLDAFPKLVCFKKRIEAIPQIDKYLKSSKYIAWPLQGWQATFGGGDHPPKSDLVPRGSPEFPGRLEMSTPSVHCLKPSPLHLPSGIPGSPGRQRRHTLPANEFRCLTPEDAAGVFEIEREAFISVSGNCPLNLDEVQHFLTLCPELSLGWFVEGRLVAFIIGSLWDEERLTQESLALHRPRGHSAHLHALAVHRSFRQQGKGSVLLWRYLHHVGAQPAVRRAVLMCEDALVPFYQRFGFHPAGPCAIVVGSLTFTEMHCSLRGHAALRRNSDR

N[C@@H](Cc1c[nH]c(F)n1)C(=O)O [2-fluorohistidine]
induction of AANAT in the pineal (AANAT): induction of AANAT in the pineal is blocked

O=C(O)c1cc(SSc2ccc([N+](=O)[O-])c(C(=O)O)c2)ccc1[N+](=O)[O-] [DTNB, 5,5'-dithiobis-(2-nitrobenzoic acid]
effect on GST-AANAT activity (GST-AANAT): inhibited GST-AANAT activity

COc1ccc2[nH]cc(CCNC(C)=O)c2c1 [Melatonin, 5-methoxy-N-acetyltryptamine]
oral bioavailability variability [1]: 25 fold range | Kd of binding and activation, higher compared to G-protein family receptors [2]: 10-100 fold
